Like-named read-outs stand apart in the source and are kept apart here.
Key:
[1] = design: method as in earlier work; conditions: ref https://comptox.epa.gov/dashboard, https://echa.europa.eu/es/information-on-chemicals, cited from earlier work
[2] = logKow as a measure of bioaccumulation, extracted from public databases; type: physicochemical; conditions: yes/no by logKow, REACH cut off 4,5
[3] = system: androgen and oestrogen receptors; experiment: ED assays of androgen and oestrogen receptors (overall experimental ED result); type: cell-based
Description: The transcriptional activation of androgen receptor (AR) assays was carried out by adapting the OECD protocol 458 (OECD [2020]).
MDA-MB-453 cells (8000 cells/well) expressing an AR luciferase reporter were seeded into 384 white plates (Greiner 781098) in culture medium (DMEM (ATCC), 10% foetal bovine serum (Sigma Aldrich), 1% penicillin–streptomycin (Sigma-Aldrich), 75 µg/ml geneticin (Gibco) and incubated overnight at 37 °C 5% CO2 and 95% humidity. After this time, the cell culture medium was discarded and replaced by assay medium (DMEM (ATCC), 0.1% foetal bovine serum (Sigma-Aldrich), and 1% penicillin–streptomycin (Sigma Aldrich)).
For studying a putative agonist effect, compounds were added to the assay plate using an Echo 550 acoustic liquid handler and incubated overnight at 37 °C 5% CO2 and 95% humidity. For studying the putative antagonist effect, compounds were added using an Echo 550 acoustic liquid handler and incubated for 15 min at 37 °C 5% CO2 and 95% humidity. Then, 1 nM 5α-dihydrotestosterone (DHT) was added, and the cell plate was incubated overnight at 37 °C, 5% CO2, and 95% humidity. After compound incubation, the cell medium was removed, 5 µl of lysis buffer 1X (Promega) was added, and the cell plate was incubated with agitation 15 min at room temperature. A freeze–thaw cycle of 10 min at −80 °C and room temperature was performed. Then 25 µl of luciferase assay reagent (Promega) was added and luminescence was determined on an EnSpire plate reader (Perkin Elmer). Data was fitted to a four-parameter sigmoidal model with Prism 5.1 (Graphpad, Inc).
The transcriptional activation of oestrogen receptor (ER) assay was carried out by adapting the OECD protocol 455 (OECD [2021]) and the method of Li et al. ([2013]).
ER luciferase reporter T47D cells (5000 cells/well) were seeded into 384 white plates (Greiner 781098) in culture medium (RPMI 1640 (Thermo Fisher Scientific 52400), 10% foetal bovine serum (Sigma Aldrich F9665), 1% penicillin–streptomycin (Sigma-Aldrich P0781), 75 µg/ml Geneticin (Gibco 10131)) and incubated overnight at 37 °C and 5% CO2. The following day, the cell culture medium was discarded and replaced by assay medium (RPMI 1640 (Thermo Fisher Scientific 52,400), 0.1% foetal bovine serum (Sigma Aldrich F9665), and 1% penicillin–streptomycin (Sigma Aldrich P0781).
The assay was performed as stated before for the AR assay using 17β-estradiol as agonist instead of DHT.
ED was assessed by transactivation in vitro assays to identify agonists and antagonists of the androgen and oestrogen receptors.
Also, the experimental group analysed the endocrine-disrupting activity for the CMR compounds.

[4] = system: CHO-K1 (Chinese hamster ovary cells); type: cell-based; conditions: 6 h with or without S9, 24 h without S9
Description: The in vitro micronucleus test is a genotoxicity test for the detection of micronuclei in the cytoplasm of interphase cells. Tests were conducted in the presence of the cytokinesis blocker cytochalasin B with three different treatment schedules: (i) short treatment for 6 h; (ii) short treatment for 6 h in the presence of an exogenous source of metabolic activation (cofactor supplemented S9 liver fraction); and (iii) extended treatment for 24 h.
CHO-K1 (Chinese hamster ovary cells, ATCC Item Number CCL-61) were cultured in DMEM F-12 containing 10% foetal bovine serum and 100 units/ml penicillin/100 μg/ml streptomycin (all from Sigma-Aldrich, St Louis, USA). Cells were seeded at 3000 cells/well in a collagen-coated 96-well plate in 100 μl. After 24 h, cells were incubated with CellTracker Orange CMTMR cellular dye solution (Invitrogen, Waltham, USA) for 1 h. Cells were then treated with compounds for 6 h, with or without S9 metabolic activation, or 24 h without S9 metabolic activation. […] After the 6-h compound treatment, cells were incubated with cytochalasin B (Alfa Aesar, Kandel, Germany) for 24 h. In case of 24-h treatment, cells were incubated with compounds in the presence of cytochalasin B and harvested after treatment. Benzo(a)pyrene, mitomycin C, and colchicine were used as positive controls for 6 h, with or without metabolic activation or 24 h treatments, respectively. […] After several washes with BupH-modified DPBS, cells were analysed in an Operetta High-Content Imaging System (PerkinElmer, Waltham, USA). […] Statistical significance was determined with the ANOVA test with significance level adjusted to p < 0.05.

Experimental result [3] | Compound | Bioaccumulation [2] | Bioaccumulation (logKow) ([1]; experimental value) | also measured
 | C=CC(=O)NC(C)C [N-Isopropylacrylamide] | No |  | Bioaccumulation (logKow) ([1]; predicted value): 0.41
 | COC(=O)C=Cc1ccccc1 [Methyl cinnamate] | No | 2.62 | 
Yes | c1ccc2c(c1)ccc1ccccc12 [Phenanthrene] |  |  | 
 | CCNC(N)=O [N-Ethylurea] | No | -0.74 | 
 | C=C(C)C(=O)O [Methacrylic acid] | No | 0.93 | 
Yes | CCCCCC1C(=O)CCC1CC(=O)OC (centres unmarked) [Methyl dihydrojasmonate] |  |  | 
Yes | C=Cc1ccccn1 [2-Ethenylpyridine] |  |  | 
 | C#CCBr [Propargyl bromide] |  |  | Experimental result ([3]; endocrine disruptor yes/no): Yes
 | CC(Cl)C(=O)c1ccc(Cl)cc1 (centres unmarked) [2-Chloro-1-(4-chlorophenyl)propan-1-one] |  |  | Micronucleus assay (M) [4]: Negative
No | CC(C)[C@H]1CC[C@H](C)C[C@@H]1O [Cyclohexanol, 5-methyl-2-(1-methylethyl)-, (1S,2R,5S)-] |  |  | 
 | O=[N+]([O-])c1ccccc1 [Nitrobenzene] | No | 1.85 | 

Compound | Experimental result [3] | Bioaccumulation [2] | Bioaccumulation (logKow) ([1]; experimental value) | also measured
Cc1cc(N)ccc1N.O=S(=O)(O)O [2,5-Diaminotoluene sulphate] | No |  |  | 

From publication PMC10025185, “A continuous in silico learning strategy to identify safety liabilities in compounds used in the leather and textile industry” (Archives of Toxicology, 2023)
